Source: patent US9409037B2, “Enhanced anti-microbial PDT” (Biolitec Pharma Marketing LTD, priority 2010, dated 2016)

System: Staphylococcus aureus
Assay: Antimicrobial PDT killing of bacteria in calf serum in a flow system
Assay type: cell-based
Settings: 20 μM Safranin O in 99% calf serum; 532 nm laser, fluence rate 30 mW/cm^2, continuous irradiation; three passages, flow rate 10 ml/min
Experimental: In a separate test a composition comprising Safranin O was added to calf serum (100% serum) solution containing Staphylococcus aureus ([…]), which is a common component of the micro flora of wounds, resulting in a final concentration of 20 μM Safranin O in 99% calf serum. Irradiation was delivered in a flow system corresponding to FIG. 3 B via a light fiber from a laser, Ceralas G2 (Biolitec AG, Germany) operating at 532 nm and using a fluence rate of 30 mW/cm^2.

With `Cc1cc2nc3cc(C)c(N)cc3[n+](-c3ccccc3)c2cc1N.[Cl-]` [Safranin O] the “percentage of killing of bacteria” value was “about 99.9%”.
